Results: US6613356B1, “Weight loss medication and method” (priority 2000, dated 2003)
Where two headings read alike, the source gives them in different places.

What was measured:
[1] = test system: mouse colons; details: cited from earlier work
[2] = 10 week experiment in adolescent common white mice fed K butyrate in chocolate; type: in vivo
Procedure: Two mouse experiments involved 8 adolescent common white mice, still in the growth period. Four were assigned to the butyrate group and were fed K butyrate mixed in pieces of chocolate 300-400 mg size twice a day, and the other four mice were assigned to the non-butyrate group and were fed the same size pieces of plain chocolate. Both groups of mice were otherwise cared for in an identical fashion and fed twice as many food pellets as recommended. The dose of butyrate initially chosen was 3.47 mg per dose scaled down from the human dose according to the ratio of body surface area of mouse compared to man. This was estimated at 1:250.

[3] = cited from earlier work
[4] = Experimental administration of potassium butyrate capsules as a weight loss agent to two human volunteers; type: in vivo; set-up: triglyceride values / total cholesterol / HDL / LDL / triglycerides: unit not given here
Procedure: Based on the inherent safety of butyrate as discussed in medical literature, experimental administration of butyrate was begun on two volunteers. Tests on the two human volunteers has produced weight loss of 17 pounds and 40 pounds respectively at a dosage of 3-5 capsules, once or twice daily (volunteer #1); or 3-5 capsules three times per day (volunteer #2). Each capsule contained approximately 140 mg of potassium butyrate at the start of the test period, and 231 mg each at the end of the test period. The butyrate capsules typically contain 231 to 287 mg of potassium butyrate and 345 to 431 mg of corn starch and 345 to 431 mg of sodium bicarbonate in a 920 to 1 100 mg Size 0 Lilly gelatin capsule. The potassium butyrate is prepared by oxidizing 1-butanol with potassium permanganate in aqueous solution at between 180° F. and 212° F. This reaction produces manganese dioxide and butyric acid and KOH. The manganese dioxide is quite insoluble and is filtered out, and the butyric acid is then neutralized by the potassium hydroxide formed, thus forming the salt, potassium butyrate. The following reactions are thought to produce the potassium butyrate:
The inventor, after having been convinced by the medical literature of the inherent safety of butyrate in humans, began experimental administration of potassium butyrate as a weight loss agent to two volunteers, one of which was […]. The starting dose was 23 mg twice a day, in capsules containing 230 mg of a 10% mixture each. Volunteer #1's starting weight then was 185 lb measured in the morning, fasting. Volunteer #1's height was […] making their body mass index (BMI) […]. Note this is in the range regarded as being overweight (25-30). The dose was increased to 66 mg twice a day a couple of days later, and after 20 days the weight declined to 181 lb. The dose was increased to 130 mg twice a day before meals after about a month. Weight after 2 months was 174 lb. During the 4th through 7th month, the dose averaged 280 mg twice a day on about half the days, skipping it on alternate days. Weight reached its lowest point after about 7 months: 168 lb, BMI 24.5, which is the upper range of normal. After that, the dose has been an average of […] once a day, taken before meals, but only used on alternate days. The weight on this low dose rose to 174 lb and has stayed within 4 lb of that for the last 5 months.
Another test subject, volunteer #2, started on potassium butyrate when weight was 256 lb, height 5′3″, BMI 40. Prior to this use of butyrate, subject's most successful weight losses was 50 lb over a 3 month period while on Optifast program, a 400 calorie a day supplemented fasting program.
The starting dose of butyrate was 40 mg three times a day. It was rapidly escalated to 560 mg before each meal and continued on that dose for about 6 months, when the dose was increased to 800 mg three times a day. Weight after 6 months was 222 lbs. The same dose was continued from that point for another 6 months. Then their weight was 220. Dose was then increased to 1150 mg three times a day for another 8 days. Then their weight was 216 after about a year, for a total of 40 lbs of weight loss during this slightly more than one year duration clinical trial. BMI declined to 35.

[5] = About 9 week (67 day) test in adult mice with butyrate added to food; type: in vivo; details: 67 day test period
Procedure: Another test on adult mice was run for about 9 weeks. Butyrate was mixed with chocolate and/or cornstarch and the mixture was added to the mice's food (a commercial guinea pig food—Aytec Supreme Daily Blend Guinea Pig Diet). The butyrate dose started at 11.1 mg per mouse twice a day at the beginning of the study and ended up at 58 mg per mouse twice a day at the end of the study. The non-butyrate-fed mice had the same chocolate and/or cornstarch added to their food in equal weight compared to the butyrate-fed mice. The four butyrate mice gained an average of 50 mg each over the 67 day test period, and the four non-butyrate mice gained an average of 325 mg each over the 67 day test period. While no weight loss occurred in either group the butyrate mice gained less weight, by a ratio of about 6.5 to 1.

## CCCC(=O)O [alkaline butyrate ion, reference compound]
[1]; mouse, in vivo
  colitis: did not cause colitis

## CCCC(=O)O [butyric acid]
[1]; 1% concentration instilled into mouse colons
  colitis: caused colitis

## CCCC(=O)[O-].[K+] [potassium butyrate]
[2]; adolescent mice, 3.47 mg per dose twice a day
  tolerability: well tolerated
[2]; adolescent mice, 10 week experiment
  weight gain less than non-butyrate mice: about 10%
[2]; adolescent mice, 10 week experiment, 3.47 then 11.5 mg twice a day, non-butyrate mice 18.6 grams
  average weight gain per mouse: 17 grams
[2]; mice
  difference in behavior, activity or agility vs non-butyrate group: no difference
[3]
  half-life in the serum: 2 min
[4]; volunteer #1
  adverse effects: No adverse effects occurred except for occasional transient epigastric aching soon after a dose
  cholesterol and cholesterol ratios: not changed significantly
  halitosis or foul eructation: No halitosis or foul eructation occurred
  liver enzymes and liver function tests: remained normal
[4]; volunteer #1, 3-5 capsules once or twice daily
  weight loss: 17 pounds
[4]; volunteer #1, after 2 months, 130 mg twice a day before meals, starting weight 185 lb
  weight: 174 lb
[4]; volunteer #1, after 20 days, 23 then 66 mg twice a day, starting weight 185 lb
  weight: 181 lb
[4]; volunteer #1, after about 6 months, initially 310
  triglyceride values: 230
[4]; volunteer #1, after about 7 months, 280 mg twice a day on about half the days, starting weight 185 lb
  weight, lowest point: 168 lb
[4]; volunteer #1, after about 7 months, starting BMI 27
  body mass index (BMI): 24.5
[4]; volunteer #1, after about 14 months
  carpal tunnel syndrome symptoms: improved markedly
[4]; volunteer #1, after about 14 months, hypertension before required 4 mg per day Cardura
  blood pressure: normal without medication
[4]; volunteer #1, checked periodically
  blood counts and survey chemistries (SMA-18 or comprehensive chemistry): normal
[4]; volunteer #1, low dose, average 660 mg once a day on alternate days, stayed within 4 lb for the last 5 months
  weight: 174 lb
[4]; volunteer #1, over 4 months, from 48
  HDL cholesterol: 47
[4]; volunteer #1, over 4 months, from 235
  total cholesterol: 236
[4]; volunteer #2
  fatigue: lessened
  feeling of general well being: improved
[4]; volunteer #2, 3-5 capsules three times per day
  weight loss: 40 pounds
[4]; volunteer #2, after 1 year's use vs previous test
  exercise tolerance on treadmill exercise stress tests: almost doubled
[4]; volunteer #2, after 1 year's use, previous test 4 minutes
  time able to walk on treadmill in stress test: 7 min
[4]; volunteer #2, after 6 months, 560 mg before each meal, starting weight 256 lb
  weight: 222 lbs
[4]; volunteer #2, after about a year, 1150 mg three times a day for another 8 days, starting weight 256 lb
  weight: 216 lbs
[4]; volunteer #2, after about a year, starting BMI 40
  BMI: 35
[4]; volunteer #2, after another 6 months at 800 mg three times a day, starting weight 256 lb
  weight: 220 lbs
[4]; volunteer #2, dropped from 266
  total cholesterol: 238
[4]; volunteer #2, during butyrate use
  abnormalities on periodic comprehensive chemistry blood tests and blood counts: no abnormalities have appeared
[4]; volunteer #2, from 56
  HDL: 52
[4]; volunteer #2, from 160
  LDL: 150
[4]; volunteer #2, from 269
  triglycerides: 179
[4]; volunteer #2, slightly more than one year
  total weight loss: 40 lbs
[5]; 11.1 to 58 mg per mouse twice a day, non-butyrate mice 325 mg
  average weight gain per mouse: 50 mg
[5]; ratio to 1
  ratio of weight gain, non-butyrate to butyrate mice: about 6.5
